Patent US20210085739A1, “ANTIPLATELET ACTIVITY OF THE ACANTHUS MOLLIS SEEDS' TOTAL EXTRACT AND ITS CONSTITUENTS” (priority 2017, published 2021)

Assays:
[1] = system: platelet aggregation induced by AA; assay: Light Transmittance Aggregometry in human PRP, agonist arachidonic acid (AA; 0.5 mM); assay type: cell-based; settings: for inhibition of AA-induced platelet aggregation (FIG. 5A, 6A): each agent 1 mg/mL, combinations at mass ratios 1:1 or 1:1:1
Description: (§1) The effect of methanol extract on platelet aggregation in vitro was extensively studied in human Platelet Rich Plasma (PRP) from healthy volunteers, using Light Transmittance Aggregometry (LTA), as we previously described (Mitsios J V, et al. Eur J Biochem. 2004; 271:855-862). PRP was activated by arachidonic acid (AA; 0.5 mM), Thrombin Receptor Activating Peptide-6 (TRAP-6; 10 μM) and ADP (10 μM), as agonists. Samples were prepared by evaporating the methanol under nitrogen and then by dissolving the residue in DMSO. The maximal aggregation, achieved within 4 min after the addition of each agonist, was determined and expressed as a percentage of 100% light transmission calibrated for each specimen (% maximal aggregation). The inhibitory efficacy of the seeds extract expressed as IC50 value (half maximal inhibitory concentration). All values derived from at least three independent experiments performed for each platelet agonist, using 3 different methanol extract preparations (prepared as described above) and are expressed as the mean±standard deviation (S.D.). The final concentration of DMSO in each assay was 0.01% by volume.
(§2) Each fraction was dissolved in DMSO and used at a final concentration of 1 mg/mL. Standards of Verbascoside and Isoverbascoside were also dissolved in DMSO and used at a final concentration of 1 mg/mL. […] This concentration was not much lower to that of the total extract 0.25 mg/mL (as it would expected, since we used a purified fraction from the total extract that expresses the inhibitory activity towards AA-induced platelet aggregation). Therefore, we used a combination of fraction 1 with fraction 2 or 3 (at mass ratios of 1:1) or a combination of the 3 fractions (at mass ratios of 1:1:1).

[2] = system: platelet aggregation induced by TRAP-6; assay: Light Transmittance Aggregometry in human PRP, agonist TRAP-6 (10 μM); assay type: cell-based; settings: each agent 1 mg/mL, combinations at mass ratios 1:1 or 1:1:1
Description: as §1, §2
Next we evaluated the biological effect of the three fractions towards platelet aggregation induced by TRAP-6.

Row | SMILES | inhibition of AA-induced platelet aggregation (FIG. 5A, 6A) [1] | inhibition of TRAP-6-induced platelet aggregation (FIG. 5B, 6B) [2] | threshold concentration (the lower concentration that induces the maximum inhibitory effect), AA-induced platelet aggregation [1] [mg/mL]
1 | C[C@@H]1O[C@@H](O[C@@H]2[C@@H](O)[C@H](OCCc3ccc(O)c(O)c3)O[C@H](COC(=O)/C=C/c3ccc(O)c(O)c3)[C@H]2O)[C@H](O)[C@H](O)[C@H]1O [Isoverbascoside] | do not inhibit platelet aggregation | inhibited platelet aggregation | –
2 | O=C1C(O[C@@H]2O[C@H](CO)[C@@H](O)[C@H](O)[C@H]2O)Oc2ccccc2N1O (stereo partly drawn) [fraction 1, 2-O-β-D-glucopyranosyl-4-hydroxy-1,4-benzoxazin-3-one] | inhibited platelet aggregation | no inhibitory activity | 0.2
3 | C[C@@H]1O[C@@H](O[C@@H]2[C@@H](O)[C@H](OCCc3ccc(O)c(O)c3)O[C@H](CO)[C@H]2OC(=O)/C=C/c2ccc(O)c(O)c2)[C@H](O)[C@H](O)[C@H]1O [Verbascoside] | do not inhibit platelet aggregation | only Isoverbascoside inhibited platelet aggregation | –
